According to patent publication US10682323B2, “Therapeutic agent for glaucoma” (TOA EIYO LTD., priority 2016, dated 2020):
pEC50: −log10 of the molar value.

Key:
human sGC = molecular target: T1, human sGC (Homo sapiens, UniProt Q02153); assay: Measurement of sGC activating effect in CHO-K1 cells stably expressing human sGC and mouse CNGA2; type: cell-based; details: CHO-K1 cells expressing human sGC and mouse CNGA2, Fura2 calcium readout, 10 μmol/L ODQ in assay buffer
T1 construct: expressed in transfected cells; host or cells: CHO-K1 cells (Chinese hamster ovary), stably co-expressing mouse CNGA2 as the calcium read-out channel
T1 sequence (Q02153 1-619): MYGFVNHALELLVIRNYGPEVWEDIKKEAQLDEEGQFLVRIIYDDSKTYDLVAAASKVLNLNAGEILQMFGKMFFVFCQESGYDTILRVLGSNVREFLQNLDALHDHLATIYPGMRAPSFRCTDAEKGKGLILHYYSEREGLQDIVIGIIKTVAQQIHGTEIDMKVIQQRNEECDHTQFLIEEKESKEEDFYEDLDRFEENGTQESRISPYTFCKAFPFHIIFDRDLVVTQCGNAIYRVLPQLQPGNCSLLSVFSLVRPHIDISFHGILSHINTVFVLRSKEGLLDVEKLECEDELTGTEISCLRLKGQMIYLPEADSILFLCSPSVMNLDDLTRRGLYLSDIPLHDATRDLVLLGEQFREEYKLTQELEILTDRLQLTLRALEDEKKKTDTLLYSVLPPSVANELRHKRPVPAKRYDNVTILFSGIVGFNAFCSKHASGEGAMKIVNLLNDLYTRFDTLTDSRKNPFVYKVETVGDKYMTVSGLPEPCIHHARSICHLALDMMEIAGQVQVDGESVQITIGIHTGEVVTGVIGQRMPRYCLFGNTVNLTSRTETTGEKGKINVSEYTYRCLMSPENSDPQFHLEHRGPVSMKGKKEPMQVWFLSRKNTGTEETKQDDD
T1 sequence (Q02108 1-690 partner): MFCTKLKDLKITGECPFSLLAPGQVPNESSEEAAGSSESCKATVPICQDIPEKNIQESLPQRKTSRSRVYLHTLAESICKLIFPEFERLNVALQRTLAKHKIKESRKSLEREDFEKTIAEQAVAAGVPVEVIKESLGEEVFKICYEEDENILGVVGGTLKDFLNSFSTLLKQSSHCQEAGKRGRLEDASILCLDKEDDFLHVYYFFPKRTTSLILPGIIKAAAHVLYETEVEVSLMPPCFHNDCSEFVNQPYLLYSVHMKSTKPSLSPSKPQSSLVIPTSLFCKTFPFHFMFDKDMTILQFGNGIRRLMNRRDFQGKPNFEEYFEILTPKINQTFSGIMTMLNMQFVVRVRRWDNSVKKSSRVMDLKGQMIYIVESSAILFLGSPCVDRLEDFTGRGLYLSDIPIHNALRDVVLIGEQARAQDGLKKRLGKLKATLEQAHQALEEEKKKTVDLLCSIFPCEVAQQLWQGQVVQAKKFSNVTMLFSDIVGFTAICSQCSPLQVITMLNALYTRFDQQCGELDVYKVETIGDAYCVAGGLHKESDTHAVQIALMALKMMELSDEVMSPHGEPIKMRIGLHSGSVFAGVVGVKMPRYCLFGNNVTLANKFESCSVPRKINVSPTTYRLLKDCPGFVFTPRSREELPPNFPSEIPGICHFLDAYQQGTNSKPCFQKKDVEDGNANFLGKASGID
Description: Chinese Hamster ovary cells (CHO-K1 cells) modified for stably expressing human sGC α subunit and β subunit, and a mouse cyclic nucleotide gated channel (CNGA2) were used in the test.
The CHO-K1 cells stably expressing human sGC and mouse CNGA2 were cultured at 37° C. in a F-12 medium supplemented with 10% (v/v) fetal bovine serum (FBS), penicillin (100 U/mL), streptomycin (100 μg/mL), G418 (250 μg/mL), and Zeocin (250 μg/mL). The cells were suspended in a culture medium, seeded in a 96 well plate, and cultured at 37° C. for 24 hours. The cells were washed with an assay buffer 1 (140 mmol/L of sodium chloride, 5 mmol/L of potassium chloride, 0.5 mmol/L of magnesium chloride, 0.01 mmol/L of calcium chloride, 10 mmol/L of glucose, 0.4 mmol/L of magnesium sulfate, 10 mmol/L of 4-(2-hydroxyethyl)piperazine-1-yl ethanesulfonic acid, 125 μmol/L of sulfinpyrazone, pH 7.4), and then an indicator solution in which Fura2-AM as a fluorescent Ca2+ indicator is dissolved in assay buffer 1 at a concentration of 5 μmol/L was added thereto, and cultured at 37° C. for 60 minutes. The culture medium was removed, the cells were washed with assay buffer 1, the test compound solution was added thereto, and cultured at room temperature for 10 minutes. The plate was mounted on a fluorescence microplate reader (FlexStation II, available from Molecular Devices) with setting of excitation wavelengths of 340 and 380 nm and a detection wavelength of 510 nm, an intracellular calcium concentration was measured as a fluorescent intensity ratio obtained from each excitation wavelength.
In this test, the solution of the test compound was prepared by dissolving each test compound in DMSO at a concentration of 10 mmol/L, and then diluting the solution with assay buffer 2 (140 mmol/L of sodium chloride, 5 mmol/L of potassium chloride, 0.5 mmol/L of magnesium chloride, 1 mmol/L of calcium chloride, 10 mmol/L of glucose, 0.4 mmol/L of magnesium sulfate, 10 mmol/L of 4-(2-hydroxyethyl)piperazine-1-yl ethanesulfonic acid, 125 μmol/L of sulfinpyrazone, 100 μmol/L of isobutylmethylxanthine, 10 μmol/L of 1H-[1,2,4]-oxadiazole [4,3-a]quinoxaline-1-on (hereinafter, referred to as ODQ), pH 7.4), in order to adjust the concentration of 10 μmol/L for testing. As a control solution, a DMSO diluted solution was used, instead of the test compound solution.
The activity of the test compound was calculated as an increase rate (%) of the sGC activity in the test compound solution relative to the sGC activity in the control solution, by dividing a fluorescent intensity ratio in adding the test compound by a fluorescent intensity ratio of the control solution, and subtracting the sGC activity in the control solution (100%) therefrom. An EC50 value was calculated from the activity of the test compound at concentrations of 0.0001, 0.001, 0.003, 0.01, 0.03, 0.1, 1, and 10 μmol/L, using a 4 parameter losgistic model from Assay Explorer (available from Dssault Systèmes BIOVIA).

[1] = Determination of Log D value (flask shaking method); type: physicochemical; details: pH 6.8; partition between n-octanol and second solution for the disintegration test (16th revised Japanese Pharmacopoeia), room temperature
Description: More specifically, the Log D is more preferably 1.6 or more and 2.3 or less, still more preferably 1.8 or more and 2.2 or less, and particularly preferably 1.8 or more and 2.1 or less. Here, the Log D value in the present invention is a compound partition coefficient between n-octanol and a second solution of a disintegration test of the 16th revised Japanese Pharmacopoeia.
The Log D value was determined using a flask shaking method, where a test compound partition coefficient between n-octanol and the second solution for the disintegration test defined in the 16th revised Japanese Pharmacopoeia was calculated. Specifically, in a microtube containing 2 mg of the test compound, n-octanol (0.25 mL) and the second solution for the disintegration test (0.25 mL) were mixed. The tube was shaken in a multi shaker at room temperature for 60 minutes, and allowed to stand until the two phases were completely separated. In the microtube, 10 μL of an n-octanol phase was diluted with 190 μL of 85% methanol and mixed, thereby obtaining an organic phase test solution. 100 μL of the second solution phase for the disintegration test was diluted with 100 μL of 50% methanol, and mixed, thereby obtaining an aqueous phase test solution. The organic phase test solution and the aqueous phase test solution were filtered, respectively, and the concentration of the test compound in these test solutions were measured, using high performance liquid chromatography. Then, from the measured concentration and dilution rate, the Log D was calculated.
That is, the Log D of the present specification is represented by the following equation: Log D=Log10([concentration of test compound in organic phase test solution]/[concentration of test compound in aqueous phase test solution])+1 [Equation 1]
The second solution for the disintegration test herein refers to, as defined in the 16th revised Japanese Pharmacopoeia, a liquid obtained by adding to 250 mL of a 0.2 mol/L potassium dihydrogenphosphate reagent, 118 mL of a 0.2 mol/L sodium hydroxide reagent, and water for adjusting to 1000 mL volume.

Row | Compound | pEC50 (human sGC) | logD [1]
1 | CC(C)(C)c1cccc(COc2ccccc2CCN(CCCCC(=O)O)[C@H]2CCCc3cc(C(=O)O)ccc32)c1 [Compound No. 9, (+)-(5S)-5-[N-[2-[2-(3-tert-butylbenzyloxy)phenyl]ethyl]-N-(4-carboxybutyl)amino]-5,6,7,8-tetrahydronaphthalene-2-carboxylic acid] | 8.15 | 2.09
2 | O=C(O)CCCCN(CCc1ccccc1OC[C@H]1CCc2ccccc2C1)C1CCCc2cc(C(=O)O)ccc21 (stereo partly drawn) [Compound No. 17, 5-[N-(4-carboxybutyl)-N-[2-[2-((2S)-1,2,3,4-tetrahydronaphthalene-2-ylmethoxy)phenyl]ethyl]amino]-5,6,7,8-tetrahydronaphthalene-2-carboxylic acid] | 7.96 | 2
3 | O=C(O)CCCCN(CCc1ccccc1OCc1ccc(COc2ccccc2)cc1)C1CCCc2cc(C(=O)O)ccc21 (centres unmarked) [Compound No. 22, 5-[N-(4-carboxybutyl)-N-[2-[2-(4-phenoxymethylbenzyloxy)phenyl]ethyl]amino]-5,6,7,8-tetrahydronaphthalene-2-carboxylic acid] | 8.05 | 2.18
4 | CC(C)(C)c1ccccc1COc1ccccc1CCN(CCCCC(=O)O)C1CCCc2cc(C(=O)O)ccc21 (centres unmarked) [Compound No. 15, 5-[N-[2-[2-(2-tert-butylbenzyloxy)phenyl]ethyl]-N-(4-carboxybutyl)amino]-5,6,7,8-tetrahydronaphthalene-2-carboxylic acid] | 7.87 | 1.95
5 | O=C(O)CCCCN(CCc1ccccc1OCc1ccc(OCc2ccccc2)cc1)C1CCOc2cc(C(=O)O)ccc21 (centres unmarked) [Compound No. 24, 4-[N-[2-[2-(4-benzyloxybenzyloxy)phenyl]ethyl]-N-(4-carboxybutyl)amino]-chromane-7-carboxylic acid] | 8.06 | 2.4
6 | N#Cc1cccc([C@H](CN(CCCCC(=O)O)Cc2ccc(C(=O)O)cc2)OCc2ccc(CCc3ccccc3)cc2)c1 [Compound No. 1, (−)-4-([N-(4-carboxybutyl)-N-[(2R)-2-(3-cyanophenyl)-2-[4-(2-phenylethyl)benzyloxy]ethyl]amino]methyl)benzoic acid] | 8.06 | 2.03
7 | O=C(O)CCCCN(Cc1ccc(C(=O)O)cc1)CC(OCc1ccc(CCc2ccccc2)cc1)c1cccs1 (centres unmarked) [Compound No. 7, ([N-(4-carboxybutyl)-N-[2-[4-(2-phenylethyl)benzyloxy]-2-(2-thienyl)ethyl]amino]methyl)benzoic acid] | 8.41 | 2.11
8 | O=C(O)CCCCN(CCc1ccccc1OCc1cc2c(s1)CCCC2)C1CCCc2cc(C(=O)O)ccc21 (centres unmarked) [Compound No. 19, 5-[N-(4-carboxybutyl)-N-[2-[2-(4,5,6,7-tetrahydrobenzo[b]thiophene-2-ylmethoxy)phenyl]ethyl]amino]-5,6,7,8-tetrahydronaphthalene-2-carboxylic acid] | 7.47 | 1.74

These reach a higher pEC50 (human sGC). Values come first.

Row | pEC50 (human sGC) | logD [1] | Compound
9 | 8.54 | 2.14 | O=C(O)CCCCN(CCc1ccccc1OCc1ccc2c(c1)CCCC2)C1CCOc2cc(C(=O)O)ccc21 (centres unmarked) [Compound No. 18, 4-[N-(4-carboxybutyl)-N-[2-[2-(1,2,3,4-tetrahydronaphthalene-6-ylmethoxy)phenyl]ethyl]amino]-chromane-7-carboxylic acid]
10 | 8.61 | 2.35 | O=C(O)CCCCN(Cc1ccc(C(=O)O)cc1)C[C@H](OCc1ccc(Oc2ccccc2)cc1)c1cccc(Cl)c1 [Compound No. 23, (−)-4-([N-(4-carboxybutyl)-N-[(2R)-2-(3-chlorophenyl)-2-[4-(phenyloxy)benzyloxy]ethyl]amino]methyl)benzoic acid]
11 | 8.70 | 1.94 | O=C(O)CCCCN(Cc1ccc(C(=O)O)cc1)C[C@H](OCc1cccc(CCc2ccccc2)c1)c1ccccc1 [Compound No. 11, (−)-4-([N-(4-carboxybutyl)-N-[(2R)-2-[3-(2-phenylethyl)benzyloxy]-2-phenylethyl]amino]methyl)benzoic acid]
12 | 8.79 | 1.8 | O=C(O)CCCCN(Cc1ccc(C(=O)O)cc1)C[C@H](OCc1ccc(CCc2ccccc2)s1)c1ccccc1 [Compound No. 4, (−)-4-[(N-(4-carboxybutyl)-N-[(2R)-2-[5-(2-phenylethyl)thiophene-2-ylmethoxy]-2-phenylethyl]amino)methyl]benzoic acid]
13 | 8.81 | 2.14 | CC(C)(C)c1cccc(CO[C@@H](CN(CCCCC(=O)O)Cc2ccc(C(=O)O)cc2)c2cccc(Cl)c2)c1 [Compound No. 2, (−)-4-([N-[2-(3-tert-butylbenzyloxy)-(2R)-2-(3-chlorophenyl)ethyl]-N-(4-carboxybutyl)amino]methyl)benzoic acid]
